From patent US8129371B2, “Thienopyrimidine and pyrazolopyrimidine compounds and their use as mTOR kinase and PI3 kinase inhibitors” (Wyeth LLC, priority 2007, dated 2012) come the findings set out here.

One assay has as its target T1, Human mTOR (FLAG-TOR) (Homo sapiens, UniProt P42345).
T1 construct: FLAG
Kind of assay: Human mTOR kinase assay with purified enzyme, DELFIA format. The class given is biochemical. The note with it: purified human mTOR enzyme, DELFIA format. Summed up:
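DELFIA readout: Eu-anti-P(T389)-S6K antibody (40 ng/mL, 1 h) on captured His6-S6K from the stopped reaction. Kinase step used purified FLAG-tagged human mTOR with test compound in HEPES (pH 7.4)/MnCl2/DTT buffer, 2 h at room temperature (linear 1–6 h), terminated by EDTA/EGTA.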

The subject of a further assay is breast line MDA468. Kind of assay: In vitro cell culture growth assay (MTS), MDA468. The format is cell-based. The note with it: Homo sapiens, 72 h, MDA468 cells, three days after drug treatment. In short, it runs like this: (§1)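 Plate cells; add inhibitors on day 1; after 3 days' treatment, add MTS; read A490; express as percent growth of vehicle-treated control.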

In a further assay the test system is prostate line LNCap. Kind of assay: In vitro cell culture growth assay (MTS), LNCap. The format is cell-based. The conditions noted are these: Homo sapiens, LNCaP, 72 h, LNCap cells, three days after drug treatment. In short, it runs like this:
as §1

The target in assay [1] is T2, PI3K (Homo sapiens, UniProt P42336).
T2 construct: PI3 Kinase α IC50; other: PI3 Kinase α; other: PI3 Kinase α isoform, fluorescence polarization
The assay can be described thus: Fluorescence polarization assay for PI3K. The format is biochemical. The conditions noted are these: PI3 Kinase α isoform, fluorescence polarization; read-out: PI3 Kinase α IC50. In short, it runs like this: (§2)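 Fluorescence-polarization competition readout: after 30–60 min of PIP2/ATP turnover in 1% DMSO, a stop mix with GST-GRP (70 nM) and red probe (10 nM) was added.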
In general terms: In fluorescence polarisation assays a small probe gives low polarisation when free and higher when bound to something large.

Assay [2] concerns the target T3, PI3K (Homo sapiens, UniProt P48736).
T3 construct: PI3 Kinase γ IC50; other: PI3 Kinase γ; other: PI3 Kinase γ isoform, fluorescence polarization
The assay can be described thus: Fluorescence polarization assay for PI3K. The format is biochemical. The conditions noted are these: PI3 Kinase γ isoform, fluorescence polarization; read-out: PI3 Kinase γ IC50. Summed up:
as §2

Molecules are shown by their SMILES.

T3 sequence (P48736 whole entry, canonical isoform): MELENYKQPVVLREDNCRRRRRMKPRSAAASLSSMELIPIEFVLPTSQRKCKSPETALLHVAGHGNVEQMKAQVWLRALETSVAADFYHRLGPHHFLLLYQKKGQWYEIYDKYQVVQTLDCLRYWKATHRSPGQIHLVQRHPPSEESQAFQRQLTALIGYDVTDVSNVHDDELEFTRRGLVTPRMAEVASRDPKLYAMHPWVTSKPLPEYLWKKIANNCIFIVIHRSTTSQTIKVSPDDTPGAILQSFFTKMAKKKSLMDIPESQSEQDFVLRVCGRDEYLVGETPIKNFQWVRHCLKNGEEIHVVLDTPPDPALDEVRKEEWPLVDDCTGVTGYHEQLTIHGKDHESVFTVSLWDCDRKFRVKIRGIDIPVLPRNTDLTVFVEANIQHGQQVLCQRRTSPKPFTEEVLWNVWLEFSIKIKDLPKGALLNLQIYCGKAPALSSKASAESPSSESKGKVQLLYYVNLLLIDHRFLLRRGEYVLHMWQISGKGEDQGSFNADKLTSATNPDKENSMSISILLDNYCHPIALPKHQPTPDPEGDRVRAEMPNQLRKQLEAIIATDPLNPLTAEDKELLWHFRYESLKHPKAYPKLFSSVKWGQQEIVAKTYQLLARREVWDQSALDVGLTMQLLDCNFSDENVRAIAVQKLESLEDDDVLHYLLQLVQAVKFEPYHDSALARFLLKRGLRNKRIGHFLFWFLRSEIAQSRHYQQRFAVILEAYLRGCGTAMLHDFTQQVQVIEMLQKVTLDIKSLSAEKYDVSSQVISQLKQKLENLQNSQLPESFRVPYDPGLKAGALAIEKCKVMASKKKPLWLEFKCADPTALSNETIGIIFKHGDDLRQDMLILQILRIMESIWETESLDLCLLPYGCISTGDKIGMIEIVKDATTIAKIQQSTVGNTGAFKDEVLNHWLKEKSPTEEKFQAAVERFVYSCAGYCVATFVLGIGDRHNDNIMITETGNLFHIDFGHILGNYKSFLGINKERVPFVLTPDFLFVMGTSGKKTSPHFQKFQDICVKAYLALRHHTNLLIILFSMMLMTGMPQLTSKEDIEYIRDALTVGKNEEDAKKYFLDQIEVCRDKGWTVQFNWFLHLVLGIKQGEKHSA
T2 sequence (P42336 whole entry, canonical isoform): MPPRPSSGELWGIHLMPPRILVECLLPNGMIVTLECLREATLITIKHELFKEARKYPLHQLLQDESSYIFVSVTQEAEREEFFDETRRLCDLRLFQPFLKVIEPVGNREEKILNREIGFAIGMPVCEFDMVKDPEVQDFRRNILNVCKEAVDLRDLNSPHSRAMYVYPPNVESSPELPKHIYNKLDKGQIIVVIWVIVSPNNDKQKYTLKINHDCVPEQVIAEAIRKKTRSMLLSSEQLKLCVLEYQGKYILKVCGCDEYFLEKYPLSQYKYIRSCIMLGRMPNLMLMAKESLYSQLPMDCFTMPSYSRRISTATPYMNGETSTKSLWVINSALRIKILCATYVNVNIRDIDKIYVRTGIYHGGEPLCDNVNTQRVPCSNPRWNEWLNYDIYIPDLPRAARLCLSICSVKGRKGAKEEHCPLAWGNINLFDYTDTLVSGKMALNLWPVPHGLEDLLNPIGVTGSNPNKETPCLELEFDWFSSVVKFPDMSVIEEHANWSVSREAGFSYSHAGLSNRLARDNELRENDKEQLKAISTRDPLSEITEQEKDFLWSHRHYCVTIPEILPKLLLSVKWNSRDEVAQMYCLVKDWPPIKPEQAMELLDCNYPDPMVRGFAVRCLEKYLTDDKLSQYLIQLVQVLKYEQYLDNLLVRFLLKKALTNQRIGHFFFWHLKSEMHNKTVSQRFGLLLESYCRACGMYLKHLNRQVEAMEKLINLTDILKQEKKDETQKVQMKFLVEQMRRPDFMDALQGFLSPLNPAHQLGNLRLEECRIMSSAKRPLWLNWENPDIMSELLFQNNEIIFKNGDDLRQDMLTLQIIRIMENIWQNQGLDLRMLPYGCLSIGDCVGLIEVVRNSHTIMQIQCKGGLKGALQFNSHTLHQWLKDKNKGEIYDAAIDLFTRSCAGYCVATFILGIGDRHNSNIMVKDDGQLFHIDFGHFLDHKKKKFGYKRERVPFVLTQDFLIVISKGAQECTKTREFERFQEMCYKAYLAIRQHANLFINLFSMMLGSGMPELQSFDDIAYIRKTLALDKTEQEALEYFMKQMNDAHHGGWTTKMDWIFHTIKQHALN

The term IC50 denotes the midpoint of a concentration-inhibition curve. Consider `COC1CCC(n2ncc3c(N4CC5CCC(C4)O5)nc(-c4ccc(NC(=O)Nc5ccc(CO)cc5)cc4)nc32)CC1` (stereo not shown) [Example 308, 1-[4-(hydroxymethyl)phenyl]-3-{4-[1-(4-methoxycyclohexyl)-4-(8-oxa-3-azabicyclo[3.2.1]oct-3-yl)-1H-pyrazolo[3,4-d]pyrimidin-6-yl]phenyl}urea], for which the IC50 against Human mTOR (FLAG-TOR) was 0.08 nM; in the assay with breast line MDA468, under 1 nM; in the assay with prostate line LNCap, under 1 nM; on PI3K [1], 80 nM; on PI3K [2], 2720 nM.
For `COC1CCC(n2ncc3c(N4CC5CCC(C4)O5)nc(-c4ccc(NC(=O)Nc5ccc(N6CCN(C)CC6)nc5)cc4)nc32)CC1` (stereo not shown) [Example 309, 1-{4-[1-(4-methoxycyclohexyl)-4-(8-oxa-3-azabicyclo[3.2.1]oct-3-yl)-1H-pyrazolo[3,4-d]pyrimidin-6-yl]phenyl}-3-[6-(4-methylpiperazin-1-yl)pyridin-3-yl]urea], the IC50 on Human mTOR (FLAG-TOR) is 0.385 nM; in the assay on breast line MDA468, 2 nM; in the assay on prostate line LNCap, under 1 nM; at PI3K [1] it was 336 nM; at PI3K [2] it was 2670 nM.
For `COC1CCC(n2ncc3c(N4CC5CCC(C4)O5)nc(-c4ccc(NC(=O)Nc5ccc(OCCN(C)C)cc5)cc4)nc32)CC1` (stereo not shown) [Example 310, 1-{4-[2-(dimethylamino)ethoxy]phenyl}-3-{4-[1-(4-methoxycyclohexyl)-4-(8-oxa-3-azabicyclo[3.2.1]oct-3-yl)-1H-pyrazolo[3,4-d]pyrimidin-6-yl]phenyl}urea] the same measures were 0.495 nM, 1 nM, under 1 nM, 221 nM and 2430 nM.
`COC1CCC(n2ncc3c(N4CC5CCC(C4)O5)nc(-c4ccc(NC(=O)OCCO)cc4)nc32)CC1` (stereo not shown) [Example 311, 2-hydroxyethyl {4-[1-(4-methoxycyclohexyl)-4-(8-oxa-3-azabicyclo[3.2.1]oct-3-yl)-1H-pyrazolo[3,4-d]pyrimidin-6-yl]phenyl}carbamate]: the IC50 was 0.86 nM at Human mTOR (FLAG-TOR); 120 nM with breast line MDA468; 2 nM in the assay with prostate line LNCap; 3840 nM at PI3K [1]; over 10000 nM at PI3K [2].
For `O=C(Nc1ccc(-c2nc(N3CC4CCC(C3)O4)c3cnn(CC(F)(F)F)c3n2)cc1)Nc1ccc(N2CCNCC2)cc1` [Example 317, 1-{4-[4-(8-oxa-3-azabicyclo[3.2.1]oct-3-yl)-1-(2,2,2-trifluoroethyl)-1H-pyrazolo[3,4-d]pyrimidin-6-yl]phenyl}-3-(4-piperazin-1-ylphenyl)urea] the same measures were 0.255 nM, 1 nM, under 1 nM, 77 nM and over 10000 nM.
Turning to `O=C(Nc1ccc(-c2nc(N3C4CCC3COC4)c3cnn(CC(F)(F)F)c3n2)cc1)Nc1ccc(N2CCNCC2)cc1` [Example 318, 1-{4-[4-(3-oxa-8-azabicyclo[3.2.1]oct-8-yl)-1-(2,2,2-trifluoroethyl)-1H-pyrazolo[3,4-d]pyrimidin-6-yl]phenyl}-3-(4-piperazin-1-ylphenyl)urea], the IC50 is 0.19 nM against Human mTOR (FLAG-TOR); 1 nM in the assay on breast line MDA468; under 1 nM in the assay with prostate line LNCap; 173 nM at PI3K [1]; 2270 nM on PI3K [2].
The corresponding values for `CNC(=O)Nc1ccc(-c2nc(N3CC4CCC(C3)O4)c3cnn(C(COC)COC)c3n2)cc1` [Example 319, 1-(4-{1-[2-methoxy-1-(methoxymethyl)ethyl]-4-(8-oxa-3-azabicyclo[3.2.1]oct-3-yl)-1H-pyrazolo[3,4-d]pyrimidin-6-yl}phenyl)-3-methylurea] are 13.5 nM, 900 nM, 240 nM, 628 nM and over 10000 nM.
For `CCNC(=O)Nc1ccc(-c2nc(N3CC4CCC(C3)O4)c3cnn(C(COC)COC)c3n2)cc1` [Example 320, 1-ethyl-3-(4-{1-[2-methoxy-1-(methoxymethyl)ethyl]-4-(8-oxa-3-azabicyclo[3.2.1]oct-3-yl)-1H-pyrazolo[3,4-d]pyrimidin-6-yl}phenyl)urea] the same measures were 9.1 nM, 590 nM, 160 nM, 1950 nM and over 10000 nM.
For `COCC(COC)n1ncc2c(N3CC4CCC(C3)O4)nc(-c3ccc(NC(=O)NC4CC4)cc3)nc21` [Example 321, 1-cyclopropyl-3-(4-{1-[2-methoxy-1-(methoxymethyl)ethyl]-4-(8-oxa-3-azabicyclo[3.2.1]oct-3-yl)-1H-pyrazolo[3,4-d]pyrimidin-6-yl}phenyl)urea] the same measures were 10.4 nM, 1050 nM, 170 nM, 3810 nM and over 10000 nM.
Consider `COCC(COC)n1ncc2c(N3CC4CCC(C3)O4)nc(-c3ccc(NC(=O)NCCO)cc3)nc21` [Example 322, 1-(2-hydroxyethyl)-3-(4-{1-[2-methoxy-1-(methoxymethyl)ethyl]-4-(8-oxa-3-azabicyclo[3.2.1]oct-3-yl)-1H-pyrazolo[3,4-d]pyrimidin-6-yl}phenyl)urea], for which the concentration for half-maximal inhibition (IC50) on Human mTOR (FLAG-TOR) was 6.45 nM; in the assay with breast line MDA468, 2800 nM; in the assay on prostate line LNCap, 1000 nM; at PI3K [1] it was 1250 nM; on PI3K [2], over 10000 nM.
As to `COCC(COC)n1ncc2c(N3CC4CCC(C3)O4)nc(-c3ccc(NC(=O)OCCO)cc3)nc21` [Example 323, 2-hydroxyethyl (4-{1-[2-methoxy-1-(methoxymethyl)ethyl]-4-(8-oxa-3-azabicyclo[3.2.1]oct-3-yl)-1H-pyrazolo[3,4-d]pyrimidin-6-yl}phenyl)carbamate], the IC50 was 16.5 nM against Human mTOR (FLAG-TOR); 2000 nM in the assay on breast line MDA468; 470 nM with prostate line LNCap; 6620 nM at PI3K [1]; over 10000 nM at PI3K [2].
For `COCC(COC)n1ncc2c(N3CC4CCC(C3)O4)nc(-c3ccc(NC(=O)Nc4ccccc4)cc3)nc21` [Example 324, 1-(4-{1-[2-methoxy-1-(methoxymethyl)ethyl]-4-(8-oxa-3-azabicyclo[3.2.1]oct-3-yl)-1H-pyrazolo[3,4-d]pyrimidin-6-yl}phenyl)-3-phenylurea] the same measures were 3.4 nM, 58 nM, 8 nM, 382 nM and 5200 nM.
The corresponding values for `COCC(COC)n1ncc2c(N3CC4CCC(C3)O4)nc(-c3ccc(NC(=O)Nc4ccncc4)cc3)nc21` [Example 325, 1-(4-{1-[2-methoxy-1-(methoxymethyl)ethyl]-4-(8-oxa-3-azabicyclo[3.2.1]oct-3-yl)-1H-pyrazolo[3,4-d]pyrimidin-6-yl}phenyl)-3-pyridin-4-ylurea] are 1.6 nM, 19 nM, 2 nM, 601 nM and 4980 nM.
With `COCC(COC)n1ncc2c(N3CC4CCC(C3)O4)nc(-c3ccc(NC(=O)Nc4cccnc4)cc3)nc21` [Example 326, 1-(4-{1-[2-methoxy-1-(methoxymethyl)ethyl]-4-(8-oxa-3-azabicyclo[3.2.1]oct-3-yl)-1H-pyrazolo[3,4-d]pyrimidin-6-yl}phenyl)-3-pyridin-3-ylurea], the IC50 against Human mTOR (FLAG-TOR) came to 2.65 nM; with breast line MDA468, 150 nM; in the assay with prostate line LNCap it was 30 nM; at PI3K [1], 1180 nM; on PI3K [2], 9530 nM.
In the case of `COCC(COC)n1ncc2c(N3CC4CCC(C3)O4)nc(-c3ccc(NC(=O)Nc4ccc(N5CCN(C)CC5)cc4)cc3)nc21` [Example 327, 1-(4-{1-[2-methoxy-1-(methoxymethyl)ethyl]-4-(8-oxa-3-azabicyclo[3.2.1]oct-3-yl)-1H-pyrazolo[3,4-d]pyrimidin-6-yl}phenyl)-3-[4-(4-methylpiperazin-1-yl)phenyl]urea], the IC50 on Human mTOR (FLAG-TOR) stood at 3.75 nM; in the assay with breast line MDA468 it was 50 nM; in the assay with prostate line LNCap, 3 nM; on PI3K [1], 764 nM; at PI3K [2] it was 3490 nM.
For `COCC(COC)n1ncc2c(N3CC4CCC(C3)O4)nc(-c3ccc(NC(=O)OC)cc3)nc21` [Example 328, methyl (4-{1-[2-methoxy-1-(methoxymethyl)ethyl]-4-(8-oxa-3-azabicyclo[3.2.1]oct-3-yl)-1H-pyrazolo[3,4-d]pyrimidin-6-yl}phenyl)carbamate] the same measures were 125 nM, 9200 nM, 2350 nM, 5770 nM and over 10000 nM.
Take `CN1CCN(C2CCC(n3ncc4c(N5CC6CCC(C5)O6)nc(-c5ccc(NC(=O)Nc6cccnc6)cc5)nc43)CC2)CC1` (stereo not shown) [Example 330, 1-(4-{1-[4-(4-methylpiperazin-1-yl)cyclohexyl]-4-(8-oxa-3-azabicyclo[3.2.1]oct-3-yl)-1H-pyrazolo[3,4-d]pyrimidin-6-yl}phenyl)-3-pyridin-3-ylurea]: the IC50 was 0.405 nM against Human mTOR (FLAG-TOR); 60 nM with breast line MDA468; 7 nM in the assay with prostate line LNCap; 238 nM at PI3K [1]; 1850 nM on PI3K [2].
